{"source": "patent US7741040B2", "about": "“Methods and compositions for detecting cancers” (Case Western Reserve University, priority 2002, dated 2010)", "tested_on": "SLC5A8 silenced colon cancer cell lines", "assay": "RT-PCR detection of SLC5A8 transcript after 5-azacytidine treatment", "type": "cell-based, human", "conditions": "5-azacytidine 1.5 μg/ml, 24 h on day 2 and day 5", "experimental": "Amplification and Sequencing of SLC5A8. The primers used for RT-PCR assay of a SLC5A8 fragment are 5′-TCCGAGGTCTACCGTTTTG-3′, and 5′-GGGCA GGGGC ATAAA TAAC-3′. The PCR parameters were 35 cycles of 95° C. (45s), 54° C. (45s), 72° C. (60s), 72° C. (10 min), and 4° C. to cool. The full length SLC5A8 ORF was amplified using primers: 5′TCCGGGATAAGAAGTGCG-3′ and 5′-[…]-3′. GC-rich cDNA polymerase kit (Clonetech) was used and PCR parameters were 35 cycles of 95° C. (45s), 62° C. (45s), 72° C. (90s), 72° C. (10 min), and 4° C. to cool. Sequencing primers were: 5′-TTTGT GGTGGTCA TCAGCG-3′,5′-GGGCAGGGGCATAAATAAC-3′,5′-AGGCTGTG GTGATGCAAGGT-3′,5′-TTAATGCCTTAGCAGCAG-3′, and 5′-CCTCCACTT CCTGAGAGAAC-3′.\n5-Azacytidine Treatment. The treatment was performed as described previously (Veigl et al., 1998, Proc Natl Acad Sci USA 95: 8698-8702). Briefly, cells were treated for 24 h on day 2 and day 5 with 5-azacytidine (Sigma) at 1.5 μg/ml. The medium was changed 24 h after addition of the 5-azacytidine (i.e., on day 3 and day 6).", "data": [{"smiles": "Nc1ncn([C@@H]2O[C@H](CO)[C@@H](O)[C@H]2O)c(=O)n1", "note": "[5-azacytidine]", "values": [{"measurement": "reactivation of SLC5A8 expression (cell lines reactivated of cell lines tested)", "result": "6 of 8"}]}]}
